The test system of series [1] is sorgo (Sorghum bicolor Moench) (var.: Lucky Sorgo). Kind of series: Test Example 6, soil column downward movement, sorgo bioassay. The series is classed as in vivo. As to conditions: 14th day after sowing. The protocol: Soil (sterilized soil:sand=3:1) was packed (4 L) into a column (9.5 cm in diameter×40 cm in height, application area: 0.007 m^2), and tap water was dropped from above by a Peristaltic pump before application of the herbicide for the purpose of maintaining the soil moisture to be uniform. Then, 10 mL of a spray solution prepared so that each agent (Compound No. 2-1, the above Reference Compounds 1 and 2) would be at a concentration corresponding to 250 g/ha was dropwise applied by a pipette. After application, water was dropped again at a rate of 400 mL/hr for about 3 hours by means of a Peristaltic pump. After the dropping, the column was left to stand for 1 day, and then the column was vertically evenly divided and seeds of sorgo (Sorghum bicolor Moench) (var.: Lucky Sorgo) were sown in a row. On the 14th day after sowing, the state of growth of the plant was visually observed at 3 cm intervals from the application point of the agent, whereby the germination and the degree of growth were evaluated by a growth inhibition rate (%) of 0 (equivalent to the non-treated area) to 100% (complete kill) to obtain the results in Table 17.
From the above results, the growth inhibition rates of Reference Compounds No. 1 and No. 2 are observed in depths deeper than that of Compound No. 2-1. […] Whereas, Compound No. 2-1 stayed at a shallow portion of soil (in a layer of from 0 to 9 cm).

Another series concerns corn (Zea mays L.). Kind of series: Test Example 4, foliar treatment, safety to crop plants versus Reference Compounds. The series is classed as in vivo. As to conditions: 3.5 to 15 g/ha, 14th to 28th day after application, test written in present tense. From the text:
Upland field soil is put into a 1/1,000,000 hectare pot, and seeds of various plants are sown. When the respective plants reach predetermined leaf stage ((1) velvetleaf (Abutilon theophrasti MEDIC.), (2) guineagrass (Panicum maximum Jacq.), (3) green foxtail (Setaria viridis L.), and (4) corn (Zea mays L.), a wettable powder of compound No. 2-1 of the above-mentioned present invention, an emulsifiable concentrate of the following Reference Compound 1 and a wettable powder of the following Reference Compound 2, prepared in accordance with a conventional preparation method, are weighed so that the active ingredients become the prescribed amounts 3.5 to 15 g/ha, and diluted with water in an amount corresponding to 300 liter per 1 hectare (containing 0.5 vol % of an agricultural spreader (MSO concentrate, manufactured by Cognis Corporation). The spray solutions thus prepared are applied for foliar treatment by a small sprayer.

The results in this text go back to US8466089B2, “Pyrazole compounds, process for their production and herbicides containing them” (Ishihara Sangyo Kaisha, Ltd., priority 2008, dated 2013).

Structures are written as SMILES. Read-outs that look alike come from different tables or passages of the source.

The term inhibition denotes the percentage by which the read-out fell short of the control.

As for `CCn1ncc(C(=O)c2ccc(S(C)(=O)=O)c(OCCOC)c2C)c1OC(C)OC(=O)OC` (centres unmarked) [Compound No. 2-1, 1-(1-Ethyl-4-(3-(2-methoxyethoxy)-2-methyl-4-(methylsulfonyl)benzoyl)-1H-pyrazol-5-yloxy)ethyl methyl carbonate], the inhibition at 250 g/ha in series [1] (depth 0-3 cm, read-out: Growth inhibition rate (%) against sorgo, Depth (cm) from the applied surface 0-3) is 70%; in series [1] (depth 3-6 cm, read-out: Growth inhibition rate (%) against sorgo, Depth (cm) from the applied surface 3-6), 19%; in series [1] (depth 6-9 cm, read-out: Growth inhibition rate (%) against sorgo, Depth (cm) from the applied surface 6-9), 10%; in series [1] (depth 9-12 cm, read-out: Growth inhibition rate (%) against sorgo, Depth (cm) from the applied surface 9-12), 5%; in series [1] (depth 12-15 cm, read-out: Growth inhibition rate (%) against sorgo, Depth (cm) from the applied surface 12-15) it was 3%; in series [1] (depth 15-18 cm, read-out: Growth inhibition rate (%) against sorgo, Depth (cm) from the applied surface 15-18), 3%. The inhibition at 250 g/ha is 2% in series [1] (depth 18-21 cm, read-out: Growth inhibition rate (%) against sorgo, Depth (cm) from the applied surface 18-21); 1% in series [1] (depth 21-24 cm, read-out: Growth inhibition rate (%) against sorgo, Depth (cm) from the applied surface 21-24); 0% in series [1] (depth 24-27 cm, read-out: Growth inhibition rate (%) against sorgo, Depth (cm) from the applied surface 24-27); 0% in series [1] (depth 27-30 cm, read-out: Growth inhibition rate (%) against sorgo, Depth (cm) from the applied surface 27-30). Moreover, the “safety to crop plants as compared to Reference Compounds” value in the series with corn (Zea mays L.) is “excellent safety to crop plants”.
